Results reported in patent US8754226B2, “Piperidinyl-substituted lactams as GPR119 modulators” (Array BioPharma Inc., priority 2010, dated 2014).

Test system: modified version of the GPR119 receptor (94% identity to human receptor)
Test: cAMP production assay (LANCE cAMP kit, TR-FRET) in HEK-293 cells
Format: cell-based
Settings: for cAMP production in HEK-293 cells: HEK-293 cells stably expressing modified GPR119, test compounds 0.2 nM to 10 μM, one-hour incubation at ambient temperature; for Fold over baseline: increase in cAMP relative to basal levels, agonist activity if 1.5-fold or greater
Method in brief: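 Doxycycline-induced (1 μg/mL, overnight) HEK-293 cells expressing modified GPR119 were thawed, 2000 cells/well, and exposed to compounds (0.2 nM-10 μM final, 0.5% DMSO) for 1 h at ambient temperature in HBSS/HEPES/BSA. cAMP was measured by LANCE TR-FRET against a standard curve. Agonism was defined as ≥1.5-fold over basal.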

Compound: CN(C)C(=O)c1ccc(O[C@H]2CCN(C3CCN(c4ncc(Cl)cc4F)CC3)C2=O)cn1 [Example 149, (S)-5-(1-(1-(5-chloro-3-fluoropyridin-2-yl)piperidin-4-yl)-2-oxopyrrolidin-3-yloxy)-N,N-dimethylpicolinamide]
- cAMP production in HEK-293 cells: 6.8 nmol
- Fold over baseline: 1.5

Compound: CS(=O)(=O)c1cc(F)c(N[C@H]2CCCN(C3CCN(c4cnc(Cl)cn4)CC3)C2=O)c(F)c1 [Example 65, (S)-1′-(5-chloropyrazin-2-yl)-3-(2,6-difluoro-4-(methylsulfonyl)phenylamino)-[1,4′-bipiperidin]-2-one]
- cAMP production in HEK-293 cells: 21.0 nmol
- Fold over baseline: 3.4

Compound: CS(=O)(=O)c1cc(F)c(O[C@H]2CCN(C3CCN(c4ncc(-c5ccccn5)cn4)CC3)C2=O)cc1F [Example 94, (S)-3-(2,5-difluoro-4-(methylsulfonyl)phenoxy)-1-(1-(5-(pyridin-2-yl)pyrimidin-2-yl)piperidin-4-yl)pyrrolidin-2-one]
- cAMP production in HEK-293 cells: 6.9 nmol
- Fold over baseline: 2.0

Compound: CCS(=O)(=O)c1ccc(N[C@H]2CCN(C3CCN(c4ncc(Cl)cc4F)CC3)C2=O)cn1 [Example 127, (S)-1-(1-(5-chloro-3-fluoropyridin-2-yl)piperidin-4-yl)-3-(6-(ethylsulfonyl)pyridin-3-ylamino)pyrrolidin-2-one]
- cAMP production in HEK-293 cells: 13.0 nmol
- Fold over baseline: 2.7

Compound: CCc1cnc(N2CCC(N3CCCC(Nc4ccc(S(C)(=O)=O)cc4F)C3=O)CC2)c(C)c1 (stereo not drawn) [Example 77, 1′-(5-ethyl-3-methylpyridin-2-yl)-3-(2-fluoro-4-(methylsulfonyl)phenylamino)-[1,4′-bipiperidin]-2-one]
- cAMP production in HEK-293 cells: 21.3 nmol
- Fold over baseline: 2.5

Compound: CCc1cnc(N2CCC(N3CCCC(Nc4ccc(S(C)(=O)=O)cc4F)C3=O)CC2)nc1 (stereo not drawn) [Example 62, 1′-(5-ethylpyrimidin-2-yl)-3-(2-fluoro-4-(methylsulfonyl)phenylamino)-[1,4′-bipiperidin]-2-one]
- cAMP production in HEK-293 cells: 9.8 nmol
- Fold over baseline: 2.9

Compound: CCc1cnc(N2CCC(N3CC[C@H](Nc4cc(F)c(S(C)(=O)=O)cc4F)C3=O)CC2)nc1 [Example 5, (S)-3-(2,5-difluoro-4-(methyl-sulfonyl)phenylamino)-1-(1-(5-ethylpyrimidin-2-yl)piperidin-4-yl)pyrrolidin-2-one]
- cAMP production in HEK-293 cells: 12.3 nmol
- Fold over baseline: 2.2

Compound: CS(=O)(=O)c1cc(F)c(N[C@H]2CCCN(C3CCN(c4cnc(Cl)cn4)CC3)C2=O)cc1F [Example 57, (S)-1′-(5-chloropyrazin-2-yl)-3-(2,5-difluoro-4-(methylsulfonyl)phenylamino)-[1,4′-bipiperidin]-2-one]
- cAMP production in HEK-293 cells: 22.8 nmol
- Fold over baseline: 3.3

Compound: CS(=O)(=O)c1ccc(O[C@@H]2C(=O)N(C3CCN(c4cnc(Cl)cn4)CC3)C[C@@H]2O)c(F)c1 [Example 39, (3S,4S)-1-(1-(5-chloropyrazin-2-yl)piperidin-4-yl)-3-(2-fluoro-4-(methylsulfonyl)phenoxy)-4-hydroxypyrrolidin-2-one]
- cAMP production in HEK-293 cells: 20.6 nmol
- Fold over baseline: 3.7

Compound: Cc1nnc(-c2ccc(O[C@H]3CCN(C4CCN(c5ncc(Cl)cn5)CC4)C3=O)c(F)c2)o1 [Example 72, (S)-1-(1-(5-chloropyrimidin-2-yl)piperidin-4-yl)-3-(2-fluoro-4-(5-methyl-1,3,4-oxadiazol-2-yl)Phenoxy)pyrrolidin-2-one]
- cAMP production in HEK-293 cells: 7.5 nmol
- Fold over baseline: 2.8

Compound: CS(=O)(=O)c1ccc(N[C@H]2CCN(C3CCN(c4ncc(Cl)nc4Cl)CC3)C2=O)c(F)c1 [Example 147, (S)-1-(1-(3,5-dichloropyrazin-2-yl)piperidin-4-yl)-3-(2-fluoro-4-(methylsulfonyl)phenylamino)pyrrolidin-2-one]
- cAMP production in HEK-293 cells: 46.4 nmol
- Fold over baseline: 3.6

Compound: CS(=O)(=O)c1cc(F)c(N[C@H]2CCN(C3CCN(c4cnc(Cl)cn4)CC3)C2=O)c(F)c1 [Example 20, (S)-1-(1-(5-chloropyrazin-2-yl)piperidin-4-yl)-3-(2,6-difluoro-4-(methylsulfonyl)phenylamino) pyrrolidin-2-one]
- cAMP production in HEK-293 cells: 24.4 nmol
- Fold over baseline: 6.5

Compound: O=C1[C@@H](Nc2ccc(S(=O)(=O)C3CC3)nc2)CCN1C1CCN(c2ncc(Cl)cc2F)CC1 [Example 126, (S)-1-(1-(5-chloro-3-fluoropyridin-2-yl)piperidin-4-yl)-3-(6-(cyclopropylsulfonyl)pyri-din-3-ylamino)pyrrolidin-2-one]
- cAMP production in HEK-293 cells: 10.4 nmol
- Fold over baseline: 2.4

Compound: Cc1ccccc1-c1cnc(N2CCC(N3CC[C@H](Oc4cc(F)c(S(C)(=O)=O)cc4F)C3=O)CC2)nc1 [Example 93, (S)-3-(2,5-difluoro-4-(methylsulfonyl)phenoxy)-1-(1-(5-o-tolylpyrimidin-2-yl)piperidin-4-yl)pyrrolidin-2-one]
- cAMP production in HEK-293 cells: 11.1 nmol
- Fold over baseline: 2.2

Compound: CS(=O)(=O)c1ccc(O[C@H]2CCN(C3CCN(c4cnc(Cl)cn4)CC3)C2=O)cn1 [Example 69, (S)-1-(1-(5-chloropyrazin-2-yl)piperidin-4-yl)-3-(6-(methylsulfonyl)pyridin-3-yloxy)pyrrolidin-2-one]
- cAMP production in HEK-293 cells: 21.3 nmol
- Fold over baseline: 3.2

Compound: CS(=O)(=O)c1ccc(N[C@H]2CCN(C3CCN(c4cnc(Cl)cn4)CC3)C2=O)c(F)c1 [Example 4, (S)-1-(1-(5-chloropyrazin-2-yl)piperidin-4-yl)-3-(2-fluoro-4-(methylsulfonyl)phenylamino)pyrrolidin-2-one]
- cAMP production in HEK-293 cells: 27.3 nmol
- Fold over baseline: 4.1

Compound: CS(=O)(=O)c1ccc(N[C@H]2CCN(C3CCN(c4cnccn4)CC3)C2=O)c(F)c1 [Example 106, (S)-3-(2-fluoro-4-(methylsulfonyl)phenyl-amino)-1-(1-(pyrazin-2-yl)piperidin-4-yl)pyrrolidin-2-one]
- cAMP production in HEK-293 cells: 17.8 nmol
- Fold over baseline: 3.0

Compound: O=C(c1ccc(O[C@H]2CCN(C3CCN(c4ncc(Cl)cc4F)CC3)C2=O)c(F)c1)N1CC[C@H](O)C1 [Example 153, (S)-1-(1-(5-chloro-3-fluoropyridin-2-yl)piperidin-4-yl)-3-(2-fluoro-4-((S)-3-hydroxypyrrolidine-1-carbonyl)phenoxy)pyrrolidin-2-one]
- cAMP production in HEK-293 cells: 14.3 nmol
- Fold over baseline: 3.1

Compound: Cc1cc(S(C)(=O)=O)ncc1N[C@H]1CCN(C2CCN(c3ncc(Cl)cc3F)CC2)C1=O [Example 121, (S)-1-(1-(5-chloro-3-fluoropyridin-2-yl)piperidin-4-yl)-3-(4-methyl-6-(methylsulfonyl)pyridin-3-ylamino) pyrrolidin-2-one]
- cAMP production in HEK-293 cells: 10.6 nmol
- Fold over baseline: 2.5

Compound: CCc1cnc(N2CCC(N3CC[C@H](Nc4cc5c(cc4Cl)C(=O)CCO5)C3=O)CC2)nc1 [Example 36]
- cAMP production in HEK-293 cells: 17.4 nmol
- Fold over baseline: 3.2

Compound: O=C1[C@@H](Nc2ncc(C(F)(F)F)cc2Cl)CCN1C1CCN(c2cnc(Cl)cn2)CC1 [Example 22, (S)-3-(3-chloro-5-(trifluoromethyl)pyridin-2-ylamino)-1-(1-(5-chloropyrazin-2-yl)piperidin-4-yl)pyrrolidin-2-one]
- cAMP production in HEK-293 cells: 32.7 nmol
- Fold over baseline: 5.6

Compound: CS(=O)(=O)c1ccc(N[C@H]2CCN(C3CCN(c4ncc(C(F)(F)F)cc4Cl)CC3)C2=O)c(F)c1 [Example 102, (S)-1-(1-(3-chloro-5-(trifluoromethyl)pyridin-2-yl)piperidin-4-yl)-3-(2-fluoro-4-(methylsulfonyl)phenylamino) pyrrolidin-2-one]
- cAMP production in HEK-293 cells: 15.5 nmol
- Fold over baseline: 3.4

Compound: CC(O)c1cnc(N2CCC(N3CCC[C@H](Nc4cc(F)c(S(C)(=O)=O)cc4F)C3=O)CC2)nc1 (stereo partly drawn) [Example 64, (3S)-3-(2,5-difluoro-4-(methylsulfonyl)phenylamino)-1′-(5-(1-hydroxyethyl)pyrimidin-2-yl)-[1,4′-bipiperidin]-2-one]
- cAMP production in HEK-293 cells: 7.4 nmol
- Fold over baseline: 2.0

Compound: CS(=O)(=O)c1cc(F)c(N[C@H]2CCN(C3CCN(c4ncc(C(F)(F)F)cc4Cl)CC3)C2=O)cc1F [Example 111, (S)-1-(1-(3-chloro-5-(trifluoromethyl)pyridin-2-yl)piperidin-4-yl)-3-(2,5-difluoro-4-(methylsulfonyl)phenyl-amino)pyrrolidin-2-one]
- cAMP production in HEK-293 cells: 37.9 nmol
- Fold over baseline: 3.0

Compound: CS(=O)(=O)c1cc(F)c(N[C@H]2CCN(C3CCN(c4ncc(C(F)(F)F)cc4Cl)CC3)C2=O)c(F)c1 [Example 108, (S)-1-(1-(3-chloro-5-(trifluoromethyl)pyridin-2-yl)piperidin-4-yl)-3-(2,6-difluoro-4-(methylsulfonyl)phenyl-amino)pyrrolidin-2-one]
- cAMP production in HEK-293 cells: 15.8 nmol
- Fold over baseline: 2.6

Compound: CS(=O)(=O)c1ccc(N[C@H]2CCN(C3CCN(c4ccc(C#N)cn4)CC3)C2=O)c(F)c1 [Example 112, (S)-6-(4-(3-(2-fluoro-4-(methylsulfonyl)phenyl-amino)-2-oxopyrrolidin-1-yl)piperidin-1-yl)nicotinonitrile]
- cAMP production in HEK-293 cells: 22.5 nmol
- Fold over baseline: 1.7

Compound: CCc1cnc(N2CCC(N3CC[C@H](Nc4cc(C)c(S(C)(=O)=O)cc4F)C3=O)CC2)nc1 [Example 35, (S)-1-(1-(5-ethylpyrimidin-2-yl)piperidin-4-yl)-3-(2-fluoro-5-methyl-4-(methylsulfonyl)phenylamino)pyrrolidin-2-one]
- cAMP production in HEK-293 cells: 14.5 nmol
- Fold over baseline: 4.1
